Patent publication US9242941B2, “Alkyl, fluoroalkyl-1,4-benzodiazepinone compounds” (BRISTOL-MYERS SQUIBB COMPANY, priority 2012, dated 2016)

What was measured:
human Notch 1 = experiment: Notch-CBF1 Transactivation Assay (Notch 1); type: cell-based; details: read-out: Notch 1 IC50; Notch-CBF1 transactivation luciferase assay in transfected HeLa cells; some values are an average of N experiments
Description: (§1) Notch-CBF1 Transactivation Assay
(§2) The Notch-CBF1 (C-promoter binding factor I) cell based transactivation assay is based on the ability of the released Notch intracellular domain fragments (NICDs) to function as transcription factors in conjunction with CBF1 and other nuclear factors. Luciferase assays were used to measure the antagonism of Notch-CBF1 transcriptional activity. HeLa cervical cancer cells are transiently co-transfected with pCDNA3.1/Hygro plasmids containing truncated Notch 1, Notch 2, Notch 3, or Notch 4 receptors and a PGL3 luciferase reporter vector containing 4 copies of CBF1 binding site. The cells were then tested for Notch-CBF1 activity in the absence or presence of test compounds. HeLa cells, maintained in DMEM (high glucose with HEPES), 1× glutamine/penicillin/streptomycin and 10% Fetal Bovine serum, were transiently transfected in a T175 Flask (4.5×10^6 cells/flask) using the Monster Transfection Kit (Minis #MIR2906) according to manufacturers specifications. Table 13 denotes respective DNA quantity for the transfections.
(§3) Assay media (5 μL) containing test compounds in final concentrations ranging from 5 μM to 8.4×10^−5 μM (3 fold serial dilutions) were added to the cells and the cell plates were then incubated for 18 hours at 37° C. and 5% CO2. Control wells contained DMSO vehicle (total counts) or 0.5 μM of an in-house small molecule inhibitor (background counts). Duplicates were used for each sample. Luciferase activity was measured after a 20-minute incubation with 50 μl STEADY-GLO® luciferase reagents according to manufacturer's specifications (Promega, Cat. #E2550) and analyzed by Envision plate reader (PerkinElmer, Boston, Mass.).
(§4) The antagonist effect of compounds was expressed as 100×[1−(average sample−average background)/(average total−average background)] where sample is the luciferase activity in the presence of test compound, background is equal to the luciferase activity in the presence of the small molecule inhibitor control and the total is signal induced in DMSO wells.

[1] = human metabolic stability half-life assay; details: microsomes, human liver microsomes
Experimental: Metabolic Stability Half-Life Panel
Incubation with Liver Microsomes

human Notch 3 = experiment: Notch-CBF1 Transactivation Assay (Notch 3); type: cell-based; details: read-out: Notch 3 IC50; Notch-CBF1 transactivation luciferase assay in transfected HeLa cells; some values are an average of N experiments
Description: as §1, §2, §3, §4

[2] = pH 7.4, CYP-mediated metabolic stability half life, NADPH-dependent
[3] = pH 7.4, HLM (t1/2, min), CYP-mediated (NADPH-dependent), 0.5 μM compound, 45 min time course, some values are an average of N experiments

| Structure (SMILES) | IC50 (human Notch 1) | half-life at 0.5 µM [1, 2] | half-life at 0.5 µM [1, 3] | IC50 (human Notch 3) |
| --- | --- | --- | --- | --- |
| CCC[C@H](C(N)=O)[C@@H](CCC(F)(F)F)C(=O)N[C@H]1N=C(c2ccc(Cl)cc2)c2cccc(Cl)c2NC1=O [Example 28, (2R,3S)—N-((3S)-9-Chloro-5-(4-chlorophenyl)-2-oxo-2,3-dihydro-1H-1,4-benzodiazepin-3-yl)-3-propyl-2-(3,3,3-trifluoropropyl)succinamide] | 1.7 nM | ≥ 30 min | 39 min | 1.7 nM |
| CCC[C@H](C(N)=O)[C@@H](CCC(F)(F)F)C(=O)N[C@H]1N=C(c2ccccc2)c2cccc(O)c2NC1=O [Example 41, (2R,3S)—N-((3S)-9-Hydroxy-2-oxo-5-phenyl-2,3-dihydro-1H-1,4-benzodiazepin-3-yl)-3-propyl-2-(3,3,3-trifluoropropyl)succinamide] | 9.1 nM | ≥ 30 min | 45 min | 12.4 nM |
| NC(=O)[C@@H](CC1CC1)[C@@H](CCC(F)(F)F)C(=O)N[C@H]1N=C(c2ccccc2)c2cccc(C(F)(F)F)c2NC1=O [Example 36, (2R,3S)-3-(Cyclopropylmethyl)-N-((3S)-2-oxo-5-phenyl-9-(trifluoromethyl)-2,3-dihydro-1H-1,4-benzodiazepin-3-yl)-2-(3,3,3-trifluoropropyl)succinamide] | 7.9 nM | ≥ 30 min | > 120 min | 8.3 nM |
| Cc1ccccc1C1=N[C@H](NC(=O)[C@H](CCC(F)(F)F)[C@H](CC2CC2)C(N)=O)C(=O)Nc2c(Cl)cccc21 [Example 13, (2R,3S)—N-((3S)-9-Chloro-5-(2-methylphenyl)-2-oxo-2,3-dihydro-1H-1,4-benzodiazepin-3-yl)-3-(cyclopropylmethyl)-2-(3,3,3-trifluoropropyl)succinamide] | 2.9 nM | ≥ 30 min | > 120 min | 5.1 nM |
| COc1ccc2c(c1F)NC(=O)[C@@H](NC(=O)[C@H](CCC(F)(F)F)[C@H](CC1CC1)C(N)=O)N=C2c1ccccc1 [Example 29, (2R,3S)-3-(Cyclopropylmethyl)-N-((3S)-9-fluoro-8-methoxy-2-oxo-5-phenyl-2,3-dihydro-1H-1,4-benzodiazepin-3-yl)-2-(3,3,3-trifluoropropyl)succinamide] | 3.1 nM | ≥ 30 min | 99 min | 7.1 nM |
| CCC[C@H](C(N)=O)[C@@H](CCC(F)(F)F)C(=O)N[C@H]1N=C(c2ccccc2)c2cccc(Cl)c2NC1=O [Example 43, (2R,3S)—N-((3S)-9-Chloro-2-oxo-5-phenyl-2,3-dihydro-1H-1,4-benzodiazepin-3-yl)-3-propyl-2-(3,3,3-trifluoropropyl)succinamide] | 3.3 nM | ≥ 30 min | 30 min | 4.8 nM |
| NC(=O)[C@@H](CC1CC1)[C@@H](CCC(F)(F)F)C(=O)N[C@H]1N=C(c2ccc(Cl)cc2)c2cccc(C3CC3)c2NC1=O [Example 7, (2R,3S)—N-((3S)-5-(4-Chlorophenyl)-9-cyclopropyl-2-oxo-2,3-dihydro-1H-1,4-benzodiazepin-3-yl)-3-(cyclopropylmethyl)-2-(3,3,3-trifluoropropyl)succinamide] | 2 nM | ≥ 30 min | 97 min | 3.3 nM |
| Cc1cccc2c1NC(=O)[C@@H](NC(=O)[C@H](CCC(F)(F)F)[C@H](CC1CC1)C(N)=O)N=C2c1ccccc1 [Example 11, (2R,3S)-3-(Cyclopropylmethyl)-N-((3S)-9-methyl-2-oxo-5-phenyl-2,3-dihydro-1H-1,4-benzodiazepin-3-yl)-2-(3,3,3-trifluoropropyl)succinamide] | 4 nM | ≥ 30 min | 76 min | 8.7 nM |
| C=CC[C@H](C(N)=O)[C@@H](CC(C)C)C(=O)N[C@H]1N=C(c2ccccc2)c2ccccc2N(CCC)C1=O [Comparative Compound 59, reference compound] | – | ≤ 9 min | – | – |
| Cc1cc(F)c2c(c1)C(c1ccccc1)=N[C@H](NC(=O)[C@H](CCC(F)(F)F)[C@H](CC1CC1)C(N)=O)C(=O)N2 [Example 17, (2R,3S)-3-(Cyclopropylmethyl)-N-((3S)-9-fluoro-7-methyl-2-oxo-5-phenyl-2,3-dihydro-1H-1,4-benzodiazepin-3-yl)-2-(3,3,3-trifluoropropyl)succinamide] | 9.7 nM | ≥ 30 min | 60 min | 26.4 nM |
| NC(=O)[C@@H](CC1CC1)[C@@H](CCC(F)(F)F)C(=O)N[C@H]1N=C(c2ccccc2)c2cccc(Cl)c2NC1=O [Example 42, (2R,3S)—N-((3S)-9-Chloro-2-oxo-5-phenyl-2,3-dihydro-1H-1,4-benzodiazepin-3-yl)-3-(cyclopropylmethyl)-2-(3,3,3-trifluoropropyl)succinamide] | 1.9 nM | ≥ 30 min | 87 min | 3.5 nM |
| Cc1cccc2c1NC(=O)[C@@H](NC(=O)[C@H](CCC(F)(F)F)[C@H](CC1CC1)C(N)=O)N=C2c1ccc(F)cc1 [Example 12, (2R,3S)-3-(Cyclopropylmethyl)-N-((3S)-5-(4-fluorophenyl)-9-methyl-2-oxo-2,3-dihydro-1H-1,4-benzodiazepin-3-yl)-2-(3,3,3-trifluoropropyl)succinamide] | 6.9 nM | ≥ 30 min | 104 min | 28.3 nM |
| Cc1ccc(C2=N[C@H](NC(=O)[C@H](CCC(F)(F)F)[C@H](CC3CC3)C(N)=O)C(=O)Nc3c(F)cccc32)cc1 [Example 16, (2R,3S)-3-(Cyclopropylmethyl)-N-((3S)-9-fluoro-5-(4-methylphenyl)-2-oxo-2,3-dihydro-1H-1,4-benzodiazepin-3-yl)-2-(3,3,3-trifluoropropyl)succinamide] | 3.8 nM | ≥ 30 min | 75 min | 16 nM |
| COc1cccc(C2=N[C@H](NC(=O)[C@H](CCC(F)(F)F)[C@H](CC3CC3)C(N)=O)C(=O)Nc3c(F)cccc32)c1 [Example 22, (2R,3S)-3-(Cyclopropylmethyl)-N-((3S)-9-fluoro-5-(3-methoxyphenyl)-2-oxo-2,3-dihydro-1H-1,4-benzodiazepin-3-yl)-2-(3,3,3-trifluoropropyl)succinamide] | 12.9 nM | ≥ 30 min | 32 min | 12.5 nM |
| CN1C(=O)[C@@H](NC(=O)[C@H](CCC(F)(F)F)[C@H](CC2CC2)C(N)=O)N=C(c2ccccc2)c2cccc(F)c21 [Example 20, (2R,3S)-3-(Cyclopropylmethyl)-N-((3S)-9-fluoro-1-methyl-2-oxo-5-phenyl-2,3-dihydro-1H-1,4-benzodiazepin-3-yl)-2-(3,3,3-trifluoropropyl)succinamide] | 3.4 nM | ≥ 30 min | 106 min | 9.1 nM |
| COc1cccc2c1NC(=O)[C@@H](NC(=O)[C@H](CCC(F)(F)F)[C@H](CC1CC1)C(N)=O)N=C2c1cccc(C(F)(F)F)c1 [Example 2, (2R,3S)-3-(Cyclopropylmethyl)-N-((3S)-9-methoxy-2-oxo-5-(3-(trifluoromethyl)phenyl)-2,3-dihydro-1H-1,4-benzodiazepin-3-yl)-2-(3,3,3-trifluoropropyl)succinamide] | 1.7 nM | ≥ 30 min | 46 min | 1.5 nM |
| NC(=O)[C@@H](CC1CC1)[C@@H](CCC(F)(F)F)C(=O)N[C@H]1N=C(c2ccc(Cl)cc2)c2cccc(Cl)c2NC1=O [Example 27, (2R,3S)—N-((3S)-9-Chloro-5-(4-chlorophenyl)-2-oxo-2,3-dihydro-1H-1,4-benzodiazepin-3-yl)-3-(cyclopropylmethyl)-2-(3,3,3-trifluoropropyl)succinamide] | 4.6 nM | ≥ 30 min | 81 min | 1.6 nM |
| CCCC[C@H](C(N)=O)[C@@H](CC(C)C)C(=O)N[C@H]1N=C(c2ccc(Cl)cc2)c2ccccc2N(C)C1=O [Comparative Compound 58, reference compound] | – | ≤ 9 min | – | – |
| C=CC[C@H](C(N)=O)[C@@H](CC(C)C)C(=O)N[C@H]1N=C(c2ccccc2)c2cc(Cl)ccc2N(C)C1=O [Comparative Compound 57, reference compound] | – | ≤ 9 min | – | – |
